Legend:
D5 = D5 (Homo sapiens, UniProt P21918); assay: D5R β-arrestin recruitment assay (DiscoverX PathHunter, CHO cells); type: cell-based; parameters: host or cells: CHO-K1; conditions: for Dopamine D5-β-arrestin Assay: DA + 50 μM PAM, Fold Change EC50: Table 6; for Dopamine D5-β-arrestin Assay: DA + 50 μM PAM, Fold Change EC50 / PAM activity at the D5 receptor / fold change of dopamine EC50 for β-arrestin recruitment to D5R: 50 μM compound; for D5 Beta-Arrestin: DA + 50 μM PAM, Fold Change EC50: fold change of dopamine EC50, 50 μM compound; for DA + 50 μM PAM, Fold Change EC50: fold change of DA EC50 with 50 μM PAM, Dopamine D5-β-arrestin Assay
Method: (§1) β-arrestin Recruitment Assay. […] Following 18-24 h of incubation, the cells were treated with the indicated concentrations of compound in PBS buffer containing 0.2 mM sodium metabisulfite, and incubated at 37° C. for 90 min. DiscoverX reagent was added to cells according to the manufacturer's protocol, followed by a 60 min incubation in the dark at room temperature. Luminescence was measured on a Hamamatsu FDSS μ-Cell reader (Hamamatsu, Bridgewater, N.J.) and data were collected using the FDSS software.
Each PAM was also examined in the absence of DA as an agonist, as indicated.

human D1R = human D1R (Homo sapiens, UniProt P21728); assay: D1R β-arrestin recruitment assay (DiscoverX PathHunter, CHO-K1 cells); conditions: for Dopamine D1-β-arrestin Assay: DA + 50 μM PAM, Fold Change EC50: Table 5, 50 μM compound; for DA + 50 μM PAM, Fold Change EC50: fold change of DA EC50 with 50 μM PAM, Dopamine D1-β-arrestin Assay
Description: The DiscoverX PathHunter β-Arrestin Assay was used to measure β-arrestin reuitment to the D1R following the manufacturer's instructions.

D4R = biological target: T1, D4R (Homo sapiens, UniProt P21917); assay: D4 β-arrestin recruitment assay (DiscoverX PathHunter, CHO-K1 cells); type: cell-based; parameters: inferred from the same PathHunter system described for D1R and D5R; host or cells: CHO-K1; conditions: for Dopamine D4-β-arrestin Assay: DA + 50 μM PAM, Fold Change EC50: Table 7, 50 μM compound; for D4 Beta-Arrestin: DA + 50 μM PAM, Fold Change EC50: fold change of dopamine EC50, 50 μM compound; for DA + 50 μM PAM, Fold Change EC50: fold change of DA EC50 with 50 μM PAM, Dopamine D4-β-arrestin Assay
T1 sequence (P21917 1-419): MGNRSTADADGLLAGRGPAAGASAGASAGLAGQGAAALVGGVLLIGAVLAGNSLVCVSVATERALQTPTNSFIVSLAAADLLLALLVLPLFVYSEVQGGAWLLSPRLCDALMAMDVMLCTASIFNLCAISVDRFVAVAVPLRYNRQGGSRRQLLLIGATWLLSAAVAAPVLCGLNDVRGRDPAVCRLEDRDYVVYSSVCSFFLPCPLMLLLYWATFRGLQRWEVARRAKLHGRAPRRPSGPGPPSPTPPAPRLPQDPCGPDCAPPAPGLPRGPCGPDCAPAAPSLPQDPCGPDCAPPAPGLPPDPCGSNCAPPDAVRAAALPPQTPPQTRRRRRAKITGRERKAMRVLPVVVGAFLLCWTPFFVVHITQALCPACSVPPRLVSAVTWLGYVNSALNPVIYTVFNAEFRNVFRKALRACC
Method: as §1, with “Assay. Agonist-mediated recruitment of β-arrestin-2 to all five DARs was determined using the DiscoveRx PathHunter complementation assay (DiscoverX Inc, Fremont, Calif.), as previously described (Free, et. al., 2014; Conroy, et. al., 2015).” for “Assay.”

Sequence of D5 (P21918 whole entry): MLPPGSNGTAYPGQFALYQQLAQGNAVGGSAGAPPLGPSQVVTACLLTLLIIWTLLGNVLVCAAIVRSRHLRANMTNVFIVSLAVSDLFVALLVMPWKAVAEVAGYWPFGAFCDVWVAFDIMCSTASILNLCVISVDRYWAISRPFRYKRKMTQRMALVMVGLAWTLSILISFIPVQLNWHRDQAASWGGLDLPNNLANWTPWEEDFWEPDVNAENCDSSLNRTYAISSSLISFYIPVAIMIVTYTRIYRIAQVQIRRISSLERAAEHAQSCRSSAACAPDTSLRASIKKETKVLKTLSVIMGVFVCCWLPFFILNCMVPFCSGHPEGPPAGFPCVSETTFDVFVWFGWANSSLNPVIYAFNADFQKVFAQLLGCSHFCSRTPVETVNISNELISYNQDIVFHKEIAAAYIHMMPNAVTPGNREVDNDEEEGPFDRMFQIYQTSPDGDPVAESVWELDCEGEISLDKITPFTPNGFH
Sequence of human D1R (P21728 whole entry): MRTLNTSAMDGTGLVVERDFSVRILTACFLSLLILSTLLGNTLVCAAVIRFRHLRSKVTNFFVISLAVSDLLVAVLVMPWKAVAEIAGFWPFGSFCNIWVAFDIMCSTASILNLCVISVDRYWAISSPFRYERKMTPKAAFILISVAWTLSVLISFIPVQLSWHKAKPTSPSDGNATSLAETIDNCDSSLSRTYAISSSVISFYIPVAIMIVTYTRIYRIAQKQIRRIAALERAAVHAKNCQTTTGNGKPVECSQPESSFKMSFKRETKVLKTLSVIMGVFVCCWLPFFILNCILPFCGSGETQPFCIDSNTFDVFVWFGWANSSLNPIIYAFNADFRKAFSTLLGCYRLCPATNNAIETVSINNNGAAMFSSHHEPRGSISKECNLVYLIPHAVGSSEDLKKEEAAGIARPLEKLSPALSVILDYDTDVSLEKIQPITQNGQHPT

SMILES | Dopamine D5-β-arrestin Assay: DA + 50 μM PAM, Fold Change EC50 (D5) | Dopamine D1-β-arrestin Assay: DA + 50 μM PAM, Fold Change EC50 (human D1R) | Dopamine D4-β-arrestin Assay: DA + 50 μM PAM, Fold Change EC50 (D4R) | D5 Beta-Arrestin: DA + 50 μM PAM, Fold Change EC50 (D5) | D4 Beta-Arrestin: DA + 50 μM PAM, Fold Change EC50 (D4R) | also measured
Cn1c2ccccc2c(=O)c2c(=O)n(C3CCCCCC3)c(C3CCCCC3)nc21 | 1.71 | 3.85 | 0.95 | – | – | –
Oc1cc2c(cc1O)[C@H]1c3ccccc3CN[C@@H]1CC2 (racemic) [dihydrexidine, reference compound] | – | – | – | – | – | Emax (human D1R; CHO-K1, read-out: dihydrexidine Emax): 70.5%
Cc1ccc(-n2c(C3CCCCC3)nc3c(c(=O)c4ccccc4n3C)c2=O)cc1 [Compound 2] | – | – | – | 2.64 | 0.64 | –
Cn1c2ccccc2c(=O)c2c(=O)n(-c3ccc(Cl)cc3)c(C3CCCCC3)nc21 [Compound 3] | – | – | – | 2.03 | 0.61 | –
COc1ccc(-n2c(C3CCCCC3)nc3c(c(=O)c4ccccc4n3C)c2=O)cc1Cl [Compound 4] | – | – | – | 0.77 | 0.61 | –
CC(C)Cc1nc2c(c(=O)c3ccccc3n2C)c(=O)n1-c1ccc(Cl)cc1 [Compound 6] | – | – | – | 0.81 | 0.47 | PAM activity at the D5 receptor (D5): none of these analogs have PAM activity; fold change of dopamine EC50 for β-arrestin recruitment to D5R (D5): 0.8 fold
CC(C)Cc1nc2c(c(=O)c3ccccc3n2C)c(=O)n1-c1cccc(Cl)c1 [Compound 7] | – | – | – | 0.80 | 0.57 | PAM activity at the D5 receptor (D5): none of these analogs have PAM activity; fold change of dopamine EC50 for β-arrestin recruitment to D5R (D5): 0.8 fold
COc1ccc(-n2c(CC(C)C)nc3c(c(=O)c4ccccc4n3C)c2=O)cc1Cl [Compound 8] | – | – | – | 1.53 | 1.20 | –
COc1ccc(-n2c(CC(C)C)nc3c(c(=O)c4ccccc4n3C)c2=O)cc1 [Compound 9] | – | – | – | 2.93 | 1.58 | –
Cc1ccc(-n2c(C3CCCC3)nc3c(c(=O)c4ccccc4n3C)c2=O)cc1 [Compound 10] | – | – | – | 3.11 | 1.33 | –
COc1ccc(-n2c(C3CCCC3)nc3c(c(=O)c4ccccc4n3C)c2=O)cc1 [Compound 11] | – | – | – | 4.10 | 1.46 | –
Cn1c2ccccc2c(=O)c2c(=O)[nH]c(C3CCCC3)nc21 [Compound 12] | – | – | – | 0.66 | 0.71 | –
Cn1c2ccccc2c(=O)c2c(=O)n(-c3cccc(Cl)c3)c(C3CCCC3)nc21 [Compound 14] | – | – | – | 0.91 | 1.90 | –
COc1ccc(-n2c(C3CCCC3)nc3c(c(=O)c4ccccc4n3C)c2=O)cc1Cl [Compound 15] | – | – | – | 1.51 | 1.33 | –
Cn1c2ccccc2c(=O)c2c(=O)n(-c3ccc(Cl)cc3)c(CC3CCCCC3)nc21 [Compound 25] | – | – | – | 2.25 | 0.77 | –
Cc1ccc(-n2c(CC3CCCCC3)nc3c(c(=O)c4ccccc4n3C)c2=O)cc1 [Compound 26] | – | – | – | 1.15 | 1.40 | –
COc1ccc(-n2c(C3CCCCC3)nc3c(c(=O)c4ccccc4n3C)c2=O)cc1 [Compound 27] | – | – | – | 3.35 | 1.19 | –
CCCc1nc2c(c(=O)c3ccccc3n2C)c(=O)n1-c1cc(C)cc(C)c1 [R1=3,5-diMePh, R2=n-Propyl, R3=H, X=NMe] | 3.81 | 14.1 | 0.95 | – | – | –
CC(C)c1nc2c(c(=O)c3ccccc3n2C)c(=O)n1-c1ccc(F)cc1 [R1=4-FPh, R2=i-Propyl, R3=H, X=NMe] | 2.44 | 1.69 | 1.76 | – | – | –
Cn1c2ccccc2c(=O)c2c(=O)n(Cc3ccccc3)c(-c3ccc(F)cc3)nc21 [R1=Bn, R2=4-FPh, R3=H, X=NMe] | 6.74 | 1.32 | 1.24 | – | – | –
CCCCCc1nc2c(c(=O)c3ccccc3n2C)c(=O)n1C1CCCCCC1 [R1=Cycloheptyl, R2=n-Pentyl, R3=H, X=NMe] | 3.89 | 1.12 | 1.46 | – | – | –
CCCc1nc2c(c(=O)c3ccccc3n2C)c(=O)n1C1CCCCCC1 [R1=Cycloheptyl, R2=n-Propyl, R3=H, X=NMe] | 7.78 | 3.47 | 0.8 | – | – | –
COc1ccc2c(=O)c3c(=O)n(-c4ccccc4)c(-c4ccc(C)cc4)nc3oc2c1 [R1=Ph, R2=4-MePh, R3=MeO, X=O] | 4.94 | 0.85 | 0.99 | – | – | –
Cn1c2ccccc2c(=O)c2c(=O)n(-c3ccccc3)c(-c3ccc(C(C)(C)C)cc3)nc21 [R1=Ph, R2=4-t-BuPh, R3=H, X=NMe] | 35.49 | 1.33 | 0.8 | – | – | –
CC(C)Cn1c(-c2ccco2)nc2c(c(=O)c3ccccc3n2C)c1=O [R1=i-Bu, R2=2-furyl, R3=H, X=NMe] | 17.2 | 2.06 | 1.7 | – | – | –
CC(C)(C)C1CCc2c(sc(NC(=O)c3ccco3)c2C(N)=O)C1 (centres unmarked) [R4=NH2; R5=NHCO-2-furanyl; R6=t-Bu] | – | – | – | – | – | DA + 50 μM PAM, Fold Change EC50 (D5): 1.14; DA + 50 μM PAM, Fold Change EC50 (human D1R): 2.19; DA + 50 μM PAM, Fold Change EC50 (D4R): 1.17
NC(=O)c1c(NC(=O)c2cccnc2)sc2c1CCCC2 [R4=NH2; R5=NHCO-3-pyridyl; R6=H] | – | – | – | – | – | DA + 50 μM PAM, Fold Change EC50 (D5): 1.03; DA + 50 μM PAM, Fold Change EC50 (human D1R): 1.88; DA + 50 μM PAM, Fold Change EC50 (D4R): 1.21
CC1CCc2c(sc(NC(=O)c3ccc(O)cc3)c2C(N)=O)C1 (centres unmarked) [R4=NH2; R5=NHCO-4-HOPh; R6=Me] | – | – | – | – | – | DA + 50 μM PAM, Fold Change EC50 (D5): 0.87; DA + 50 μM PAM, Fold Change EC50 (human D1R): 1.76; DA + 50 μM PAM, Fold Change EC50 (D4R): 1.2
Cc1ccccc1NC(=O)c1c(NC(=O)c2ccncc2)sc2c1CCC(C)C2 (centres unmarked) [R4=NH-2-MePH; R5=NHCO-4-pyridyl; R6=Me] | – | – | – | – | – | DA + 50 μM PAM, Fold Change EC50 (D4R): 1.09
Cc1ccccc1NC(=O)c1c(NC(=O)c2ccncc2)sc2c1CCC(C)C2 (centres unmarked) [R4=NH-2-MePh; R5=NHCO-4-pyridyl; R6=Me] | – | – | – | – | – | DA + 50 μM PAM, Fold Change EC50 (D5): 0.83; DA + 50 μM PAM, Fold Change EC50 (human D1R): 2.09

Reference: patent publication US20210040074A1 (The United States of America,as represented by the …, priority 2018, published 2021)
